Reference: patent US9695155B2, “Herbicidal substituted pyrimidinyloxy benzene compounds” (E. I. DU PONT DE NEMOURS AND COMPANY, priority 2013, dated 2017)

Experiments:
barnyardgrass [1] = assay: Test A preemergence; format: in vivo, Echinochloa crus-galli; settings: Echinochloa crus-galli, pre-emergence, 240 h
Procedure, shortened: (§1)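 Compounds in non-phytotoxic solvent with surfactant applied as soil spray preemergence, or postemergence to plants 2-10 cm at one- to two-leaf stage, in loam/sand. After approximately 10 days in greenhouse, injury rated visually versus untreated controls, 0 (no effect) to 100 (complete control).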

pigweed [2] = assay: Test A preemergence; format: in vivo, Amaranthus retroflexus; settings: Amaranthus retroflexus, pre-emergence
Procedure, shortened: as §1

wheat [3] = assay: Test A preemergence; format: in vivo, Triticum aestivum
Procedure, shortened: as §1

corn [4] = assay: Test A preemergence; format: in vivo, Zea mays; settings: Zea mays, pre-emergence, 240 h
Procedure, shortened: as §1

barnyardgrass [5] = assay: Test A postemergence; format: in vivo, Echinochloa crus-galli; settings: Echinochloa crus-galli, post-emergence, 240 h
Procedure, shortened: as §1

giant foxtail = assay: Test A postemergence; format: in vivo, Setaria faberii; settings: Setaria faberi, post-emergence, 240 h
Procedure, shortened: as §1

pigweed [6] = assay: Test A postemergence; format: in vivo, Amaranthus retroflexus; settings: Amaranthus retroflexus, post-emergence
Procedure, shortened: as §1

wheat [7] = assay: Test A postemergence; format: in vivo, Triticum aestivum; settings: Triticum aestivum, post-emergence, 240 h
Procedure, shortened: as §1

corn [8] = assay: Test A postemergence; format: in vivo, Zea mays; settings: Zea mays, post-emergence, 240 h
Procedure, shortened: as §1

rice = assay: Test B flooded paddy test; format: in vivo, Oryza sativa; settings: Oryza sativa; Flood, 250 g ai/ha; 0 to 100 scale where 0 is no effect and 100 is complete control; read-out: Plant response rating, Rice
Procedure, shortened: (§2)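 Greenhouse flooded-pot test: compounds dosed into 3 cm standing water over 2-leaf plants, flood held constant. Rated visually after 13–15 days on 0–100 (complete control = 100); a dash marks no test result.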

sedge, umbrella = assay: Test B flooded paddy test; format: in vivo, Cyperus difformis; settings: Cyperus difformis, Flood, 250 g ai/ha; 0 to 100 scale where 0 is no effect and 100 is complete control; read-out: Plant response rating, Sedge, Umbrella
Procedure, shortened: as §2

Heteranthera limosa = assay: Test B flooded paddy test; format: in vivo; settings: Heteranthera limosa, Flood, 250 g ai/ha; 0 to 100 scale where 0 is no effect and 100 is complete control; read-out: Plant response rating, Ducksalad
Procedure, shortened: as §2

galium = assay: Test C postemergence; format: in vivo, Galium aparine; settings: Galium, post-emergence
Procedure, shortened: (§3)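 Sown in loam/sand → sprayed pre-emergence; or grown to 1–4 leaves in peat mix → sprayed post-emergence. Same solvent/surfactant formulation both ways. Greenhouse 13–15 d. Score 0–100 visual.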

pigweed [9] = assay: Test C postemergence; format: in vivo, Amaranthus retroflexus; settings: Amaranthus retroflexus, post-emergence
Procedure, shortened: as §3

barnyardgrass [10] = assay: Test C postemergence; format: in vivo, Echinochloa crus-galli; settings: Echinochloa crus-galli, post-emergence
Procedure, shortened: as §3

kochia = assay: Test C postemergence; format: in vivo, Kochia scoparia; settings: Bassia scoparia, post-emergence
Procedure, shortened: as §3

velvetleaf = assay: Test C postemergence; format: in vivo, Abutilon theophrasti; settings: Abutilon theophrasti, post-emergence
Procedure, shortened: as §3

[11] = 125 g ai/ha, 0 to 100 scale where 0 is no effect and 100 is complete control, read-out: Plant response rating, Barnyardgrass
[12] = 125 g ai/ha, 0 to 100 scale where 0 is no effect and 100 is complete control, read-out: Plant response rating, Pigweed
[13] = 125 g ai/ha, 0 to 100 scale where 0 is no effect and 100 is complete control

**Q.** `N#Cc1cccc(Oc2ncc(Cl)cn2)c1-n1cc(Br)cn1` [Compound 52, 2-(4-bromo-1H-pyrazol-1-yl)-3-[(5-chloro-2-pyrimidinyl)oxy]benzonitrile] was tested. Which pest or weed control at 125 g/ha (barnyardgrass [1]; [11]) did it give?
**A.** Its pest or weed control at 125 g/ha is 90%.

**Q.** And the pest or weed control at 500 g/ha (barnyardgrass [1]; 500 g ai/ha, 0 to 100 scale, 0 no effect, 100 complete control, approx. 10 days, read-out: Barnyardgrass plant response rating)?
**A.** The pest or weed control at 500 g/ha was 100%.

**Q.** And the pest or weed control at 125 g/ha (pigweed [2]; [12])?
**A.** The pest or weed control at 125 g/ha was 100%.

**Q.** What about the pest or weed control at 500 g/ha (pigweed [2]; 240 h, 500 g ai/ha, 0 to 100 scale, 0 no effect, 100 complete control, approx. 10 days, read-out: Pigweed plant response rating) of the same compound?
**A.** Its pest or weed control at 500 g/ha is 100%.

**Q.** What about the “Plant response rating, Wheat” value (wheat [3]; [13]) of the same compound?
**A.** The value was 20.

**Q.** What about the plant injury at 500 g/ha (wheat [3]; Triticum aestivum, pre-emergence, 240 h, 500 g ai/ha, 0 to 100 scale, 0 no effect, 100 complete control, approx. 10 days, read-out: Wheat plant response rating) of the same compound?
**A.** Its plant injury at 500 g/ha is 80%.

**Q.** What about the Corn plant response rating (crop injury, 0 = no effect, 100 = complete kill) at 125 g/ha (corn [4]; [13]) of the same compound?
**A.** Its Corn plant response rating (crop injury, 0 = no effect, 100 = complete kill) at 125 g/ha is 20%.

**Q.** What about the plant injury at 500 g/ha (corn [4]; 500 g ai/ha, 0 to 100 scale, 0 no effect, 100 complete control, approx. 10 days, read-out: Corn plant response rating) of the same compound?
**A.** Its plant injury at 500 g/ha is 80%.

**Q.** What about the pest or weed control at 125 g/ha (barnyardgrass [5]; [11]) of the same compound?
**A.** Its pest or weed control at 125 g/ha is 90%.

**Q.** And the pest or weed control at 500 g/ha (barnyardgrass [5]; 500 g ai/ha, 0 to 100 scale, 0 no effect, 100 complete control, read-out: Plant response rating Barnyardgrass)?
**A.** The pest or weed control at 500 g/ha was 100%.

**Q.** What about the pest or weed control at 125 g/ha (giant foxtail; 125 g ai/ha, 0 to 100 scale where 0 is no effect and 100 is complete control, read-out: Plant response rating, Foxtail, Giant) of the same compound?
**A.** Its pest or weed control at 125 g/ha is 90%.

**Q.** What about the pest or weed control at 500 g/ha (giant foxtail; 500 g ai/ha, 0 to 100 scale, 0 no effect, 100 complete control, read-out: Plant response rating Foxtail, Giant) of the same compound?
**A.** Its pest or weed control at 500 g/ha is 100%.

**Q.** What about the pest or weed control at 125 g/ha (pigweed [6]; [12]) of the same compound?
**A.** The pest or weed control at 125 g/ha was 100%.

**Q.** What about the pest or weed control at 500 g/ha (pigweed [6]; 240 h, 500 g ai/ha, 0 to 100 scale, 0 no effect, 100 complete control, read-out: Plant response rating Pigweed) of the same compound?
**A.** Its pest or weed control at 500 g/ha is 100%.

**Q.** What about the plant injury at 125 g/ha (wheat [7]; 125 g ai/ha, 0 to 100 scale where 0 is no effect and 100 is complete control, read-out: Plant response rating, Wheat) of the same compound?
**A.** The plant injury at 125 g/ha was 40%.

**Q.** And the plant injury at 500 g/ha (wheat [7]; 500 g ai/ha, 0 to 100 scale, 0 no effect, 100 complete control, read-out: Plant response rating Wheat)?
**A.** The plant injury at 500 g/ha was 100%.

**Q.** What about the Corn plant response rating (crop injury, 0 = no effect, 100 = complete kill) at 125 g/ha (corn [8]; [13]) of the same compound?
**A.** Its Corn plant response rating (crop injury, 0 = no effect, 100 = complete kill) at 125 g/ha is 90%.

**Q.** What about the plant injury at 500 g/ha (corn [8]; 500 g ai/ha, 0 to 100 scale, 0 no effect, 100 complete control, read-out: Plant response rating Corn) of the same compound?
**A.** The plant injury at 500 g/ha was 90%.

**Q.** And the plant injury at 250 g/ha (rice)?
**A.** Its plant injury at 250 g/ha is 20%.

**Q.** What about the pest or weed control at 250 g/ha (sedge, umbrella) of the same compound?
**A.** The pest or weed control at 250 g/ha was 95%.

**Q.** What about the pest or weed control at 250 g/ha (Heteranthera limosa) of the same compound?
**A.** Its pest or weed control at 250 g/ha is 70%.

**Q.** What about the pest or weed control at 125 g/ha (galium; 125 g ai/ha, postemergence, read-out: Plant response rating (0 to 100), Galium) of the same compound?
**A.** Its pest or weed control at 125 g/ha is 85%.

**Q.** And the pest or weed control at 250 g/ha (galium; 250 g ai/ha, postemergence, read-out: Plant response rating (0 to 100), Galium)?
**A.** The pest or weed control at 250 g/ha was 90%.

**Q.** And the pest or weed control at 31 g/ha (galium; Postemergence, 31 g ai/ha, scale 0 to 100 (0 no effect, 100 complete control), 13 to 15 days, read-out: Plant response rating, Galium)?
**A.** Its pest or weed control at 31 g/ha is 60%.

**Q.** What about the pest or weed control at 62 g/ha (galium; Postemergence, 62 g ai/ha, scale 0 to 100 (0 no effect, 100 complete control), read-out: Plant response rating, Galium) of the same compound?
**A.** The pest or weed control at 62 g/ha was 60%.

**Q.** What about the pest or weed control at 125 g/ha (pigweed [9]; 125 g ai/ha, postemergence, read-out: Plant response rating (0 to 100), Pigweed) of the same compound?
**A.** Its pest or weed control at 125 g/ha is 80%.

**Q.** And the pest or weed control at 250 g/ha (pigweed [9]; 250 g ai/ha, postemergence, read-out: Plant response rating (0 to 100), Pigweed)?
**A.** The pest or weed control at 250 g/ha was 95%.

**Q.** What about the pest or weed control at 31 g/ha (pigweed [9]; Postemergence, 31 g ai/ha, scale 0 to 100 (0 no effect, 100 complete control), 13 to 15 days, read-out: Plant response rating, Pigweed) of the same compound?
**A.** Its pest or weed control at 31 g/ha is 60%.

**Q.** And the pest or weed control at 62 g/ha (pigweed [9]; Postemergence, 62 g ai/ha, scale 0 to 100 (0 no effect, 100 complete control), read-out: Plant response rating, Pigweed)?
**A.** Its pest or weed control at 62 g/ha is 60%.

**Q.** And the pest or weed control at 125 g/ha (barnyardgrass [10]; 125 g ai/ha, postemergence, read-out: Plant response rating (0 to 100), Barnyardgrass)?
**A.** Its pest or weed control at 125 g/ha is 5%.

**Q.** And the pest or weed control at 250 g/ha (barnyardgrass [10]; 250 g ai/ha, postemergence, read-out: Plant response rating (0 to 100), Barnyardgrass)?
**A.** The pest or weed control at 250 g/ha was 10%.

**Q.** And the pest or weed control at 31 g/ha (barnyardgrass [10]; Postemergence, 31 g ai/ha, scale 0 to 100 (0 no effect, 100 complete control), 13 to 15 days, read-out: Plant response rating, Barnyardgrass)?
**A.** The pest or weed control at 31 g/ha was 0%.

**Q.** What about the pest or weed control at 62 g/ha (barnyardgrass [10]; Postemergence, 62 g ai/ha, scale 0 to 100 (0 no effect, 100 complete control), read-out: Plant response rating, Barnyardgrass) of the same compound?
**A.** Its pest or weed control at 62 g/ha is 5%.

**Q.** And the pest or weed control at 125 g/ha (kochia; 125 g ai/ha, postemergence, read-out: Plant response rating (0 to 100), Kochia)?
**A.** Its pest or weed control at 125 g/ha is 90%.

**Q.** What about the pest or weed control at 250 g/ha (kochia; 250 g ai/ha, postemergence, read-out: Plant response rating (0 to 100), Kochia) of the same compound?
**A.** Its pest or weed control at 250 g/ha is 95%.

**Q.** And the pest or weed control at 31 g/ha (kochia; Postemergence, 31 g ai/ha, scale 0 to 100 (0 no effect, 100 complete control), 13 to 15 days, read-out: Plant response rating, Kochia)?
**A.** The pest or weed control at 31 g/ha was 75%.

**Q.** And the pest or weed control at 62 g/ha (kochia; Postemergence, 62 g ai/ha, scale 0 to 100 (0 no effect, 100 complete control), read-out: Plant response rating, Kochia)?
**A.** The pest or weed control at 62 g/ha was 90%.

**Q.** And the pest or weed control at 125 g/ha (velvetleaf; 125 g ai/ha, postemergence, read-out: Plant response rating (0 to 100), Velvetleaf)?
**A.** Its pest or weed control at 125 g/ha is 70%.

**Q.** And the pest or weed control at 250 g/ha (velvetleaf; 250 g ai/ha, postemergence, read-out: Plant response rating (0 to 100), Velvetleaf)?
**A.** Its pest or weed control at 250 g/ha is 90%.

**Q.** What about the pest or weed control at 31 g/ha (velvetleaf; Postemergence, 31 g ai/ha, scale 0 to 100 (0 no effect, 100 complete control), 13 to 15 days, read-out: Plant response rating, Velvetleaf) of the same compound?
**A.** Its pest or weed control at 31 g/ha is 50%.

**Q.** And the pest or weed control at 62 g/ha (velvetleaf; Postemergence, 62 g ai/ha, scale 0 to 100 (0 no effect, 100 complete control), read-out: Plant response rating, Velvetleaf)?
**A.** Its pest or weed control at 62 g/ha is 60%.
